This is an account of results in patent US11267825B2 (AICURIS GMBH & CO. KG, priority 2017, dated 2022).

Bounds are passed on as bounds.

One data set relates to HepAD38 cells. Briefly: Cell viability assay (AlamarBlue) in HepAD38 cells. To be noted: HepAD38 cells in the presence of 0.3 μg/ml tetracycline, six days incubation. In general terms: Alamar Blue is a resazurin reagent that responds to reducing activity.
The subject of another data set is HBV. Briefly: Determination of HBV DNA from the supernatants of HepAD38 cells (anti-HBV activity). Format: cell-based, hepatitis B virus. To be noted: HBV DNA in HepAD38 supernatant at day 6; read-out: Cell Activity (EC50). In a few lines: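 HepAD38 cells (60,000/well) were treated with half-log compound dilutions in tetracycline-free medium to induce HBV production. On day 6, HBV DNA was purified from filtered supernatant and quantified by real-time PCR against plasmid standards. EC50 values came from non-linear regression of relative copy numbers, typically from three experiments in triplicate.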

The next data set concerns the target HBV core protein (UniProt P03146). Format: biochemical. To be noted: BODIPY-FL labelled core protein, assembly started with NaCl, read after 6 min; read-out: Assembly Activity (IC50). Put shortly:
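Fluorescence-quenching assembly assay using E. coli-expressed core protein 1–149 plus Cys150, labelled with BODIPY-FL maleimide, at 1.0–2.0 μM in 50 mM HEPES pH 7.5, 0.5% DMSO. Assembly started with NaCl to […]; fluorescence (ex 477/em 525 nm) read after 6 min. EC50 by non-linear regression, 8-point 0.5-log dilutions.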

Chain of HBV core protein (P03146 whole entry, looked up): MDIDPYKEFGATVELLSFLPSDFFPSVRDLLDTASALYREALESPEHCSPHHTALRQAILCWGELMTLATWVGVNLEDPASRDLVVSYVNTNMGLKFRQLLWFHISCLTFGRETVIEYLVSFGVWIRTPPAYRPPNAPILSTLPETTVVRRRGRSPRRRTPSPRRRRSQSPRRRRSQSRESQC

The CC50 is the concentration at which the toxic effect on the cells reaches its halfway point. A word on the EC50: it is the concentration needed to bring the measured effect to its halfway point. As a reminder, the IC50 is the concentration that inhibits the measured activity by half. Regarding “(2S)-2-amino-3-{[5-(1H-indole-2-carbonyl)-4H,5H,6H,7H-[1,3]thiazolo[5,4-c]pyridin-2-yl]carbamoyl}propanoic acid [Example 444]”, in the data set with HepAD38 cells, the CC50 is greater than 10 µM. The EC50 in the data set with HBV was less than 1 µM. Further, on HBV core protein, the IC50 lay in the range of 5 to 10 µM.
In the case of `O=C(c1cc2c(Cl)cc(F)cc2[nH]1)N1CCc2nc(N[C@H]3C[C@H](O)C3)sc2C1` [Example 356, (1r,3r)-3-{[5-(4-chloro-6-fluoro-1H-indole-2-carbonyl)-4H,5H,6H,7H-[1,3]thiazolo[5,4-c]pyridin-2-yl]amino}cyclobutan-1-ol], the CC50 with HepAD38 cells is greater than 10 µM. The EC50 in the data set with HBV was less than 1 µM. Also, on HBV core protein, the IC50 is less than 5 µM.
The like results for `O=C(c1cc2c(Cl)c(F)ccc2[nH]1)N1CCc2nc(N[C@H]3C[C@H](O)C3)sc2C1` [Example 355, (1r,3r)-3-{[5-(4-chloro-5-fluoro-1H-indole-2-carbonyl)-4H,5H,6H,7H-[1,3]thiazolo[5,4-c]pyridin-2-yl]amino}cyclobutan-1-ol] were, in that order, greater than 10 µM, less than 1 µM and less than 5 µM.
The like results for “(2S)-2-amino-4-{[5-(1H-indole-2-carbonyl)-4H,5H,6H,7H-[1,3]thiazolo[5,4-c]pyridin-2-yl]carbamoyl}butanoic acid [Example 354]” were, in that order, greater than 10 µM, less than 1 µM and less than 5 µM.
On to `O=C(Nc1nc2c(s1)CN(C(=O)c1cc3ccccc3[nH]1)CC2)C1[C@H]2CNC[C@@H]12` (stereo partly drawn) [Example 360, (1R,5S,6S)—N-[5-(1H-indole-2-carbonyl)-4H,5H,6H,7H-[1,3]thiazolo[5,4-c]pyridin-2-yl]-3-azabicyclo[3.1.0]hexane-6-carboxamide], for which the CC50 in the data set with HepAD38 cells was greater than 10 µM. Further, the EC50 with HBV is less than 1 µM. Moreover, at HBV core protein, the IC50 was less than 5 µM.
The like results for `O=C(Nc1nc2c(s1)CN(C(=O)c1cc3ccccc3[nH]1)CC2)C1[C@H]2COC[C@@H]12` (stereo partly drawn) [Example 358, (1R,5S,6R)—N-[5-(1H-indole-2-carbonyl)-4H,5H,6H,7H-[1,3]thiazolo[5,4-c]pyridin-2-yl]-3-oxabicyclo[3.1.0]hexane-6-carboxamide] were, in that order, greater than 10 µM, less than 1 µM and less than 5 µM.
The like results for `O=C(c1cc2ccc(Cl)cc2[nH]1)N1CCc2nc(N[C@H]3C[C@H](O)C3)sc2C1` [Example 357, (1r,3r)-3-{[5-(6-chloro-1H-indole-2-carbonyl)-4H,5H,6H,7H-[1,3]thiazolo[5,4-c]pyridin-2-yl]amino}cyclobutan-1-ol] were, in that order, greater than 10 µM, less than 1 µM and less than 5 µM.
